Data reported in patent US20170240556A1, “BIFLUORODIOXALANE-AMINO-BENZIMIDAZOLE KINASE INHIBITORS FOR THE TREATMENT OF CANCER, AUTOIMMUNEINFLAMMATION AND CNS DISORDERS” (4SC DISCOVERY GMBH, priority 2012, published 2017).

What was measured:
[1] = target: Casein kinase 1 delta (CSKN1D) (Homo sapiens, UniProt P48730); experiment: Casein kinase assay, CK1 delta; type: biochemical; conditions: recombinant CSKN1D 5 nM, ATP 10 μM
[2] = target: Casein kinase 1 epsilon (CSKN1E) (Homo sapiens, UniProt P49674); experiment: Casein kinase assay, CK1 epsilon; type: biochemical; conditions: recombinant CSKN1E 30 nM, ATP 10 μM
Description: The recombinant protein Casein kinase 1 delta (CSKN1D) was added to the substrate solution in a concentration of 5 nM and gently mixed. Dilution series in of compounds of the present invention in DMSO were added to the reaction mixture, followed after 20 min by addition of a mixture of ATP and ^33P-ATP (specific activity 0.01 μCi/μl final) to a final concentration of 10 μM. Reactions were carried out at 25° C. for 120 min, followed by spotting the reactions onto P81 ion exchange filter paper. Unbound phosphate was removed by washing of the filters in 0.75% phosphoric acid. […] IC50 values and curve fits were obtained using the program Prism® (Graph Pad Software).
The above assay was also used to determine the inhibitory capacity of the compounds of the present invention on Casein Kinase 1 epsilon, wherein instead of CSKN1D, recombinant protein Casein kinase 1 epsilon (CSKN1E) was added to the substrate solution in a concentration of 30 nM and gently mixed.

Sequence of Casein kinase 1 epsilon (CSKN1E) (P49674 whole entry): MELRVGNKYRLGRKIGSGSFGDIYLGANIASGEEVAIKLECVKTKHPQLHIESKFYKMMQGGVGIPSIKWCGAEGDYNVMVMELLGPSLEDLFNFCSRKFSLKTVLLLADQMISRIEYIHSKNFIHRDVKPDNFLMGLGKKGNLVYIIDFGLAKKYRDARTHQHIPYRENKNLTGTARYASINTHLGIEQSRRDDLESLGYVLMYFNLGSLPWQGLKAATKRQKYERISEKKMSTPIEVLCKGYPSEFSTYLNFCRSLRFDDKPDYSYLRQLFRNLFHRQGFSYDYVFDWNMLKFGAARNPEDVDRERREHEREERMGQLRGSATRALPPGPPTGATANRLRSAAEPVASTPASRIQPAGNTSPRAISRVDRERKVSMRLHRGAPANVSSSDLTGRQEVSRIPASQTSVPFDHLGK
Sequence of Casein kinase 1 delta (CSKN1D) (P48730 whole entry): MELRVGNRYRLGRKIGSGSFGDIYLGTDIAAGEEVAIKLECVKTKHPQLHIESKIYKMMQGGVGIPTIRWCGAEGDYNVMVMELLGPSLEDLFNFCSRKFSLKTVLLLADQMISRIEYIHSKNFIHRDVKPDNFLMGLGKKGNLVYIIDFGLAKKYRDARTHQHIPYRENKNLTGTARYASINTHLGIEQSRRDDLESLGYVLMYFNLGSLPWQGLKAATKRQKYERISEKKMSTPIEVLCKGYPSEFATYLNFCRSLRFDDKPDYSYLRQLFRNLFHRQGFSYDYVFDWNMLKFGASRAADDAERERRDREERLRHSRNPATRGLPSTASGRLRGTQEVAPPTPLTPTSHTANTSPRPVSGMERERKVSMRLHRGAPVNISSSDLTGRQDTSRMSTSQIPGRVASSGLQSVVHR

SMILES	IC50 [1]	IC50 [2]
CC(=O)c1c[nH]c(C(=O)Nc2nc3cc4c(cc3[nH]2)OC(F)(F)O4)c1 [Compound 104, 4-acetyl-N-(2,2-difluoro-5H-[1,3]dioxolo[4′,5′:4,5]benzo[1,2-d]imidazol-6-yl)-1H-pyrrole-2-carboxamide]	< 200 nM	< 200 nM
O=C(Nc1nc(C(=O)Nc2nc3cc4c(cc3[nH]2)OC(F)(F)O4)ns1)c1cccc(Cl)c1 [Compound 57]	< 200 nM	< 200 nM
COc1ccc2cc([C@H](C)C(=O)Nc3nc4cc5c(cc4[nH]3)OC(F)(F)O5)ccc2c1 [Compound 133, (S)-N-(2,2-difluoro-5H-[1,3]dioxolo[4′,5′:4,5]benzo[1,2-d]imidazol-6-yl)-2-(6-methoxymaphthalen-2-yl)propanamide]	< 200 nM	< 200 nM
O=C(O)c1cccc(C(=O)Nc2nc3cc4c(cc3[nH]2)OC(F)(F)O4)c1 [Compound 18B, 3-((2,2-Difluoro-5H-[1,3]dioxolo[4′,5′:4,5]benzo[1,2-d]imidazol-6-yl)carbamoyl)benzoic acid]	200 to 1000 nM	200 to 1000 nM
Cc1occc1C(=O)Nc1nc2cc3c(cc2[nH]1)OC(F)(F)O3 [Compound 33, N-(2,2-difluoro-5H-[1,3]dioxolo[4′,5′:4,5]benzo[1,2-d]imidazol-6-yl)-2-methylfuran-3-carboxamide]	< 200 nM	200 to 1000 nM
O=C(Nc1nc2cc3c(cc2[nH]1)OC(F)(F)O3)c1csc(-c2ccc3c(c2)OCO3)n1 [Compound 39, 2-(benzo[d][1,3]dioxol-5-yl)-N-(2,2-difluoro-5H-[1,3]dioxolo[4′,5′:4,5]benzo[1,2-d]imidazol-6-yl)thiazole-4-carboxamide]	> 1000 nM	200 to 1000 nM
O=C(Nc1nc2cc3c(cc2[nH]1)OC(F)(F)O3)c1ccncc1 [Compound 18, N-(2,2-difluoro-5H-[1,3]dioxolo[4′,5′:4,5]benzo[1,2-d]imidazol-6-yl)isonicotinamide]	< 200 nM	200 to 1000 nM
CS(=O)(=O)c1ccc(C(=O)Nc2nc3cc4c(cc3[nH]2)OC(F)(F)O4)s1 [Compound 85, N-(2,2-difluoro-5H-[1,3]dioxolo[4′,5′:4,5]benzo[1,2-d]imidazol-6-yl)-5-(methylsulfonyl)thiophene-2-carboxamide]	200 to 1000 nM	200 to 1000 nM
O=C(Cc1cccc(Cl)c1)Nc1nc2cc3c(cc2[nH]1)OC(F)(F)O3 [Compound 8B, 2-(3-chlorophenyl)-N-(2,2-difluoro-5H-[1,3]dioxolo[4′,5′:4,5]benzo[1,2-d]imidazol-6-yl)acetamide]	< 200 nM	< 200 nM
O=C(Nc1nc2cc3c(cc2[nH]1)OC(F)(F)O3)c1cccs1 [Compound 45, N-(2,2-difluoro-5H-[1,3]dioxolo[4′,5′:4,5]benzo[1,2-d]imidazol-6-yl)thiophene-2-carboxamide]	200 to 1000 nM	200 to 1000 nM
O=C(Nc1nc2cc3c(cc2[nH]1)OC(F)(F)O3)c1csc(C2CCN(c3ncnc4ccsc34)CC2)n1 [Compound 97, N-(2,2-difluoro-5H-[1,3]dioxolo[4′,5′:4,5]benzo[1,2-d]imidazol-6-yl)-2-(1-(thieno[3,2-d]pyrimidin-4-yl)piperidin-4-yl)thiazole-4-carboxamide]	200 to 1000 nM	200 to 1000 nM
O=C(Nc1nc2cc3c(cc2[nH]1)OC(F)(F)O3)c1ccc(S(=O)(=O)N2CCOCC2)cc1 [Compound 117, N-(2,2-difluoro-5H-[1,3]dioxolo[4′,5′:4,5]benzo[1,2-d]imidazol-6-yl)-4-(morpholinosulfonyl)benzamide]	< 200 nM	< 200 nM
O=C(Nc1nc(C(=O)Nc2nc3cc4c(cc3[nH]2)OC(F)(F)O4)cs1)c1ccncc1 [Compound 21, N-(2,2-difluoro-5H-[1,3]dioxolo[4′,5′:4,5]benzo[1,2-d]imidazol-6-yl)-2-(isonicotinamido)thiazole-4-carboxamide]	< 200 nM	< 200 nM
O=C(/C=C/c1ccccc1)Nc1nc(C(=O)Nc2nc3cc4c(cc3[nH]2)OC(F)(F)O4)co1 [Compound 9, 2-cinnamamido-N-(2,2-difluoro-5H-[1,3]dioxolo[4′,5′:4,5]benzo[1,2-d]imidazol-6-yl)oxazole-4-carboxamide]	> 1000 nM	> 1000 nM
Cc1nnsc1-c1nc(C(=O)Nc2nc3cc4c(cc3[nH]2)OC(F)(F)O4)cs1 [Compound 134, N-(2,2-difluoro-5H-[1,3]dioxolo[4′,5′:4,5]benzo[1,2-d]imidazol-6-yl)-2-(4-methyl-1,2,3-thiadiazol-5-yl)thiazole-4-carboxamide]	< 200 nM	< 200 nM
Cc1ccc(C(=O)Nc2nc(C(=O)Nc3nc4cc5c(cc4[nH]3)OC(F)(F)O5)ns2)cc1 [Compound 89, N-(2,2-difluoro-5H-[1,3]dioxolo[4′,5′:4,5]benzo[1,2-d]imidazol-6-yl)-5-(4-methylbenzamido)-1,2,4-thiadiazole-3-carboxamide]	200 to 1000 nM	200 to 1000 nM
COc1ccc(OC)c(S(=O)(=O)Nc2nc(C(=O)Nc3nc4cc5c(cc4[nH]3)OC(F)(F)O5)cs2)c1 [Compound 19, N-(2,2-difluoro-5H-[1,3]dioxolo[4′,5′:4,5]benzo[1,2-d]imidazol-6-yl)-2-(2,5-dimethoxyphenylsulfonamido)thiazole-4-carboxamide]	< 200 nM	< 200 nM
Cc1ccccc1C(=O)Nc1nc2cc3c(cc2[nH]1)OC(F)(F)O3 [Compound 68, N-(2,2-difluoro-5H-[1,3]dioxolo[4′,5′:4,5]benzo[1,2-d]imidazol-6-yl)-2-methylbenzamide]	200 to 1000 nM	> 1000 nM
O=C(Nc1nc2cc3c(cc2[nH]1)OC(F)(F)O3)c1ccc(-n2cccn2)cc1 [Compound 142, N-(2,2-difluoro-5H-[1,3]dioxolo[4′,5′:4,5]benzo[1,2-d]imidazol-6-yl)-4-(1H-pyrazol-1-yl)benzamide]	< 200 nM	> 1000 nM
Cc1nn(-c2ccccc2)c(C)c1C(=O)Nc1nc2cc3c(cc2[nH]1)OC(F)(F)O3 [Compound 15, N-(2,2-difluoro-5H-[1,3]dioxolo[4′,5′:4,5]benzo[1,2-d]imidazol-6-yl)-3,5-dimethyl-1-phenyl-1H-pyrazole-4-carboxamide]	> 1000 nM	> 1000 nM
O=C(Nc1nc2cc3c(cc2[nH]1)OC(F)(F)O3)c1nc(NC(=O)c2ccccc2OC(F)(F)F)n[nH]1 [Compound 52, N-(2,2-difluoro-5H-[1,3]dioxolo[4′,5′:4,5]benzo[1,2-d]imidazol-6-yl)-3-(2-(trifluoromethoxy)benzamido)-1H-1,2,4-triazole-5-carboxamide]	< 200 nM	200 to 1000 nM
O=C(Nc1nc2cc3c(cc2[nH]1)OC(F)(F)O3)c1csc(Br)n1 [Compound 55, 2-bromo-N-(2,2-difluoro-5H-[1,3]dioxolo[4′,5′:4,5]benzo[1,2-d]imidazol-6-yl)thiazole-4-carboxamide]	200 to 1000 nM	200 to 1000 nM
O=C(Nc1nc2cc3c(cc2[nH]1)OC(F)(F)O3)c1csc(NC(=O)c2ccco2)n1 [Compound 11, N-(2,2-difluoro-5H-[1,3]dioxolo[4′,5′:4,5]benzo[1,2-d]imidazol-6-yl)-2-(furan-2-carboxamido)thiazole-4-carboxamide]	< 200 nM	< 200 nM
O=C(Nc1nc2cc3c(cc2[nH]1)OC(F)(F)O3)c1cn(-c2ccccc2)nc1C(F)(F)F [Compound 16, N-(2,2-difluoro-5H-[1,3]dioxolo[4′,5′:4,5]benzo[1,2-d]imidazol-6-yl)-1-phenyl-3-(trifluoromethyl)-1H-pyrazole-4-carboxamide]	200 to 1000 nM	200 to 1000 nM
